# Test system: ATP-dependent exonuclease
# Experiment: Coupled spectrophotometric assay: ADP formation coupled to NADH oxidation (PK/LDH), read at 340 nm
# Type: biochemical
# Settings: for Relative rate of ATP hydrolysis: alone; for Product inhibition: observed only upon >50% conversion of the substrates ATP and DNA
# Method: Standard curves were routinely generated by using 0, 2, 6, 10, 14 and 18 μL of 1 ng/μL substrate DNA. Eighty μl of the reaction mix was incubated with up to 20 μl of DNA and dH2 O (total volume of 100 μl) at 25° C. The reactions were quenched with 15 μl of 200 mM EDTA, pH 8.0/NaOH, following a 30 or 40 min incubation. The reactions were read at 340 nm.
# The 10× assay buffer contained tris-acetate (pH 7.8/acetate at 25° C.); 330 mM, potassium acetate; 660 mM, magnesium acetate; 100 mM, dithiothreitol; 5 mM, Triton X-100, 0.1%. The reaction mix was prepared as follows, 10× buffer; 0.250 ml, NADH; 0.250 ml (0.64 μmoles), PEP; 25.0 μl (2.4 μmoles), ATP; 75.0 μl (2.5 μmoles), H2 O; 1.305 ml, PK/LDH enzyme mix; 75.0 μl, ATP dependent DNAase; 20.0 μl (200 units).
# An enzyme kinetics program ENZFITTER (Elsevier Biosoft) was used to generate a plot (A340 versus ng DNA) of the standard. The slope was calculated following a regression analysis. A similar plot of the sample (A340 versus μL DNA) was also prepared. The slope determined from the regression analysis was used to calculate the concentration of linear DNA in the sample.
# A reliable method for quantification requires that the concentration of products formed in the reaction is linear with time, concentrations of enzyme and of substrate. In the present assay, ATP hydrolysis was linear with time. The experiments that generated the data shown in FIG. 2 are a coupled spectrophotometric assay in which the linear DNA content was varied from 2 to 20 ng. Twenty μL aliquots were removed at various times (10, 20, 30 & 60 min), and quenched by mixing with 4 μl of 200 mM EDTA as described in Materials and Methods. The samples were further diluted to 100 μl with water, to facilitate determination of optical density. ATP hydrolysis was linear with time and at least up to 40% substrate converted to products (<0.4 mM ADP and Pi). ADP formation was also linear with several enzyme concentrations. The experiments that generated the data shown in FIG. 3 are a coupled assay system in which the amount of enzyme added to the reaction was varied. The enzyme was diluted using 1× reaction buffer and left on ice prior to its addition to the reaction mixture. The reaction was quenched at 15 min, with EDTA as described in Materials and Methods. ADP formation was linear with several enzyme concentrations at least until 0.36 mM ADP and Pi was formed in the reaction. The reaction rates were slower when ~60% of the substrates (100 ng DNA and 1 mM ATP) were converted to products. […] The Vmax was 30 nmoles/min/mg enzyme. In the experiments that generated the data in FIG. 4, the reaction was carried out in a coupled assay as described in the Methods. The reactions were initiated by the addition of enzyme. Following initiation of the 500 μl reaction; 100 μl samples were withdrawn at 1, 2, 5 and 10 min and quenched with 10 μl of 200 mM EDTA. Initial velocities were derived from the reaction rate, obtained by linear regression analysis of absorbances at 340 nm recorded at various times during the reaction. […] The data reported in FIG. 5A is replot of FIG. 2 as a function of linear DNA content in the reaction mixture. In the experiments which generated these date, the 20 μl aliquots were quenched with EDTA as described above, at various times of incubation. […] The results are consistent with the potential use of this enzyme to quantify linear DNA content.
# [1] = 50 ng linear DNA as substrate, +10 mM EDTA or +1 mM citrate
structure (smiles),measurement,setting,value
O=C(O)CC(O)(CC(=O)O)C(=O)O [citrate],Relative rate of ATP hydrolysis,[1],0.686
same,Enhancement of enzymatic activity,citrate at 50 μM,~50%
same,Inhibition of ATP hydrolytic activity,citrate at 1 mM in the presence of 10 mM Mg++,30%
CCO [ethanol],Relative rate of ATP hydrolysis,"5 ng linear DNA as substrate, +200 ng t-RNA, +500 ng circular DNA or +5% ethanol",0.86
same,Relative rate of ATP hydrolysis,"10 ng linear DNA as substrate, +200 ng t-RNA, +500 ng circular DNA or +5% ethanol",1.78
same,Relative rate of ATP hydrolysis,"15 ng linear DNA as substrate, +200 ng t-RNA, +500 ng circular DNA or +5% ethanol",2.64
same,Effect on enzymatic activity,concentrations beyond 4% ethanol,severely inhibited
"Nc1ncnc2c1ncn2[C@@H]1O[C@H](COP(=O)(O)OP(=O)(O)O)[C@@H](O)[C@H]1O [ADP, adenosine diphosphate]",Product inhibition,,Product inhibition
O=C(O)CN(CCN(CC(=O)O)CC(=O)O)CC(=O)O [EDTA],Relative rate of ATP hydrolysis,[1],0.008
same,Effect on the enzymatic reaction,at molar equivalent to the divalent cation used in the assay,quenched the enzymatic reaction
"O=P(O)(O)O [Pi, inorganic phosphate]",Product inhibition,,Product inhibition

# From patent US6083692A, “Method of detecting the presence and measuring the quantity of biological polymers” (American Home Products Corporation, priority 1996, dated 2000)
